Test results: BigSolDB 2.1

N[C@H](Cc1c[nH]c2ccccc12)C(=O)O
solubility (mole fraction)
Conditions	in DMF	in ethanol	in isopropanol	in methanol	in water
283.15 K	0.00714	9.34e-05	1.29e-05	0.000179	0.00146
288.15 K	0.00749	0.000112	1.57e-05	0.000217	0.00159
293.15 K	0.00793	0.000135	1.9e-05	0.000261	0.00175
298.15 K	0.00834	0.000165	2.26e-05	0.000303	0.00192
303.15 K	0.00872	0.000202	2.64e-05	0.000358	0.00209
308.15 K	0.00912	0.000243	3.09e-05	0.000421	0.00227
313.15 K	0.00954	0.00029	3.62e-05	0.000489	0.00245
318.15 K	0.01	0.000348	4.16e-05	0.000575	0.00267
323.15 K	0.0104	0.00041	4.78e-05	0.000671	0.00288
328.15 K	0.0108	0.000484	5.44e-05	0.000779	0.00309
333.15 K	0.0113	0.000567	6.22e-05	0.000894	0.00332
